What was measured:
Assay type in all cases: in vivo
[1] = tested on: Amaranthus retroflexus; test: Herbicidal activity test for indoor pre-emergence soil treatment; parameters: key: 1-9 levels; higher = more weed remaining vs blank control; conditions: 150 g a.i./ha, visual inspection 21 days after treatment
Experimental: (§1) The herbicidal activity test for indoor pre-emergence soil treatment was performed with some of the N-benzylbenzamide-based compounds of general formula I or II with reference to the method of NY/T 1155.3-2006. Neutral sandy loam soil having an organic content of ≤2% was added to fill ⅘ of the pot, and the soil was completely moistened by infiltrating irrigation from the bottom of the pot. The seeds of the test weed were evenly spread on the soil surface, and then covered by 0.5 cm to 2.0 cm of soil depending on the seed size. Representative compounds in the examples were used to prepare emulsifiable concentrates (10%), and spray treatments to the soil were performed 24 hours after the sowing with the test agents diluted with water, at a spraying dosage of 150 g(a.i.)/ha. Then, the results were investigated by visual inspection 21 days after the treatments. The herbicidal activity of the agent was evaluated on a scale of 1-9 levels according to the symptoms and severity of damage to the test weeds.
(§2) Level 2: equivalent to 0 to 2.5% of the weed in the blank control area;
(§3) Level 3: equivalent to 2.6 to 5% of the weed in the blank control area;
(§4) Level 4: equivalent to 5.1 to 10% of the weed in the blank control area;
(§5) Level 5: equivalent to 10.1 to 15% of the weed in the blank control area;
(§6) Level 6: equivalent to 15.1 to 25% of the weed in the blank control area;
(§7) Level 7: equivalent to 25.1 to 35% of the weed in the blank control area;
(§8) Level 8: equivalent to 35.1 to 67.5% of the weed in the blank control area; and
(§9) Level 9: equivalent to 67.6 to 100% of the weed in the blank control area.

[2] = tested on: Digitaria sanguinalis; test: as above; parameters: key: 1-9 levels; higher = more weed remaining vs blank control; conditions: 150 g a.i./ha, visual inspection 21 days after treatment
Experimental: as §1, §2, §3, §4, §5, §6, §7, §8, §9

[3] = tested on: Chenopodium album; test: Field test for weed control in a corn field; conditions: 150 g a.i./ha, after treatment
Experimental: (§10) The weed control efficacy field test was performed in a corn field with some of the N-benzylbenzamide-based compounds of general formula I or II with reference to the method of GB/T 17980.42-2000. […] Spray treatments were performed in the stage where 2 leaves to 5 leaves were grown for the corns after the sowing. Representative compounds in the examples were used to prepare emulsifiable concentrates (10%), and spray treatments were performed with the concentrates in water at a dosage of 150 g(a.i.)/ha, and repeated 4 times for each treatment, and the area was 20 m^2. Oil dispersion with 25% of mesotrione was used as a control agent and applied at a dosage of 150 g(a.i.)/h. […] The herbicidal activities of the agents were evaluated on a scale of 1-9 levels according to the symptoms and severity of damage to the test weeds.
as §2, §3, §4, §5, §6, §7, §8, §9

[4] = tested on: green bristlegrass; test: Field test for weed control in a corn field; conditions: 150 g a.i./ha, after treatment
Experimental: as §10, §2, §3, §4, §5, §6, §7, §8, §9

[5] = tested on: Solanum nigrum; test: Field test for weed control in a corn field; conditions: 150 g a.i./ha, 30 days after treatment
Experimental: as §10, §2, §3, §4, §5, §6, §7, §8, §9

[6] = tested on: Amaranthus retroflexus; test: Field test for weed control in a corn field; conditions: 150 g a.i./ha, 30 days after treatment
Experimental: as §10, §2, §3, §4, §5, §6, §7, §8, §9

[7] = tested on: Acalypha australis; test: Field test for weed control in a corn field; conditions: 150 g a.i./ha, after treatment
Experimental: as §10, §2, §3, §4, §5, §6, §7, §8, §9

[8] = tested on: nutgrass flatsedge; test: Field test for weed control in a corn field; conditions: 150 g a.i./ha, after treatment
Experimental: as §10, §2, §3, §4, §5, §6, §7, §8, §9

[9] = tested on: Portulaca oleracea; test: Field test for weed control in a corn field; conditions: 150 g a.i./ha, after treatment
Experimental: as §10, §2, §3, §4, §5, §6, §7, §8, §9

[10] = tested on: goosegrass; test: Field test for weed control in a corn field; conditions: 150 g a.i./ha, after treatment
Experimental: as §10, §2, §3, §4, §5, §6, §7, §8, §9

[11] = tested on: Barnyard grass; test: Field test for weed control in a corn field; conditions: 150 g a.i./ha, 30 days after treatment
Experimental: as §10, §2, §3, §4, §5, §6, §7, §8, §9

[12] = tested on: Digitaria sanguinalis; test: Field test for weed control in a corn field; conditions: 150 g a.i./ha, after treatment
Experimental: as §10, §2, §3, §4, §5, §6, §7, §8, §9

[13] = tested on: Convolvulus arvensis; test: Field test for weed control in a corn field; conditions: 150 g a.i./ha, after treatment
Experimental: as §10, §2, §3, §4, §5, §6, §7, §8, §9

[14] = tested on: green bristlegrass; test: Herbicidal activity test for indoor post-emergence spraying on stems and leaves; parameters: key: grade level by weed remaining vs blank control, e.g. 5 = 10.1-15%; conditions: 150 g a.i./ha, visual inspection 21 days after treatment
Experimental: (§11) The post-emergence herbicidal activity test was performed with some of the N-benzylbenzamide-based compounds of general formula I or II with reference to the method of NY/T 1155.4-2006. […] After the sowing, the weed was moved to a greenhouse for regular cultivation. […] Then, the results were investigated by visual inspection 21 days after the treatments. […] Level 5: equivalent to 10.1 to 15% of the weed in the blank control area; Level 6: equivalent to 15.1 to 25% of the weed in the blank control area; Level 7: equivalent to 25.1 to 35% of the weed in the blank control area; Level 8: equivalent to 35.1 to 67.5% of the weed in the blank control area; and […]

[15] = tested on: Amaranthus retroflexus; test: as above; parameters: key: grade level by weed remaining vs blank control, e.g. 5 = 10.1-15%; conditions: 150 g a.i./ha, visual inspection 21 days after treatment
Experimental: as §11

[16] = tested on: Barnyard grass; test: as above; parameters: key: grade level by weed remaining vs blank control, e.g. 5 = 10.1-15%; conditions: 150 g a.i./ha, visual inspection 21 days after treatment
Experimental: as §11

[17] = tested on: Digitaria sanguinalis; test: as above; parameters: key: grade level by weed remaining vs blank control, e.g. 5 = 10.1-15%; conditions: 150 g a.i./ha, visual inspection 21 days after treatment
Experimental: as §11

[18] = tested on: Humulus scandens; test: as above; parameters: key: grade level by weed remaining vs blank control, e.g. 5 = 10.1-15%; conditions: 150 g a.i./ha, visual inspection 21 days after treatment
Experimental: as §11

[19] = tested on: Piemarker; test: as above; parameters: key: grade level by weed remaining vs blank control, e.g. 5 = 10.1-15%; conditions: 150 g a.i./ha, visual inspection 21 days after treatment
Experimental: as §11

[20] = tested on: Humulus scandens; test: Herbicidal activity test for indoor pre-emergence soil treatment; conditions: 150 g a.i./ha, visual inspection 21 days after treatment
Experimental: as §1, §2, §3, §4, §5, §6, §7, §8, §9

[21] = tested on: green bristlegrass; test: as above; parameters: key: level 1-9; higher = more weed remaining vs blank control; conditions: 150 g a.i./ha, visual inspection 21 days after treatment
Experimental: as §1, §2, §3, §4, §5, §6, §7, §8, §9

[22] = tested on: Barnyard grass; test: as above; parameters: key: level 1-9; higher = more weed remaining vs blank control; conditions: 150 g a.i./ha, visual inspection 21 days after treatment
Experimental: as §1, §2, §3, §4, §5, §6, §7, §8, §9

[23] = tested on: Piemarker; test: as above; parameters: key: level 1-9; higher = more weed remaining vs blank control; conditions: 150 g a.i./ha, visual inspection 21 days after treatment
Experimental: as §1, §2, §3, §4, §5, §6, §7, §8, §9

[24] = tested on: Broadleaf weed; test: Post-emergence herbicidal activity test in a paddy field; parameters: key: level scale; higher level = more weed left vs blank control; conditions: 150 g a.i./ha (penoxsulam control 250 g(a.i.)/h)
Experimental: (§12) The post-emergence herbicidal activity test was performed in a paddy field with some of the N-benzylbenzamide-based compounds of general formula I or II with reference to the method of GB/T 17980.40-2000. […] Spray treatments were performed in the stage where 4 leaves to 5 leaves were grown for the rice seedlings which was about 1 month after the sowing. Representative compounds in the examples were used to prepare emulsifiable concentrates (10%), and spray treatments were performed with the concentrates in water at a dosage of 150 g(a.i.)/ha, and repeated 4 times for each treatment, and the area was 50 m^2. 25 g/L of penoxsulam suspension was used as a control agent and applied at a dosage of 250 g(a.i.)/h. The results were investigated by a value estimating survey method 15 days and 30 days after the treatments. The relative weed population quantities were estimated by comparing each agent treated area with an adjacent blank control area, and the results of which were investigated with the following grading standard method using the overall coverage of the weed population as an indicator.
as §2, §3, §4, §5, §6, §7, §8, §9

[25] = tested on: Gramineae; test: as above; parameters: key: level scale; higher level = more weed left vs blank control; conditions: 150 g a.i./ha (penoxsulam control 250 g(a.i.)/h)
Experimental: as §12, §2, §3, §4, §5, §6, §7, §8, §9

[26] = tested on: Cyperaceae; test: as above; parameters: key: level scale; higher level = more weed left vs blank control; conditions: 150 g a.i./ha (penoxsulam control 250 g(a.i.)/h)
Experimental: as §12, §2, §3, §4, §5, §6, §7, §8, §9

Structure (SMILES) | Herbicidal Activity Amaranthus retroflexus [1] | Herbicidal Activity Digitaria sanguinalis [2] | Post-emergence weed control effect, Chenopodium album [3] | Post-emergence weed control effect, Green bristlegrass [4] | Post-emergence weed control effect, Solanum nigrum [5] | Post-emergence weed control effect, Amaranthus retroflexus [6] | Post-emergence weed control effect, Acalypha australis [7] | Post-emergence weed control effect, Nutgrass flatsedge [8] | Post-emergence weed control effect, Portulaca oleracea [9] | Post-emergence weed control effect, Goose grass [10] | Post-emergence weed control effect, Barnyard grass [11] | Post-emergence weed control effect, Digitaria sanguinalis [12] | Post-emergence weed control effect, Convolvulus arvensis [13] | Herbicidal Activity Green bristlegrass [14] | Herbicidal Activity Amaranthus retroflexus [15] | Herbicidal Activity Barnyard grass [16] | Herbicidal Activity Digitaria sanguinalis [17] | Herbicidal Activity Humulus scandens [18] | Herbicidal Activity Piemarker [19] | Herbicidal Activity Humulus scandens [20] | also measured
COc1ccc(OC)c(C(=O)NCc2ccc(F)cc2)c1 [Compound A23] | 2 (equivalent to 0 to 2.5% of the weed in the blank control area) | 1 | 1 | 1 | 2 (equivalent to 0 to 2.5% of the weed in the blank control area) | 1 | 2 (equivalent to 0 to 2.5% of the weed in the blank control area) | 3 (equivalent to 2.6 to 5% of the weed in the blank control area) | 1 | 2 (equivalent to 0 to 2.5% of the weed in the blank control area) | 2 (equivalent to 0 to 2.5% of the weed in the blank control area) | 2 (equivalent to 0 to 2.5% of the weed in the blank control area) | 1 | 1 | 1 | 1 | 1 | 1 | 1 | 4 (equivalent to 5.1 to 10% of the weed in the blank control area) | Herbicidal Activity Green bristlegrass [21]: 1; Herbicidal Activity Barnyard grass [22]: 1; Herbicidal Activity Piemarker [23]: 2 (equivalent to 0 to 2.5% of the weed in the blank control area); Herbicidal activity 15 days after treatment Broadleaf weed [24]: 1; Herbicidal activity 30 days after treatment Broadleaf weed [24]: 1; Herbicidal activity 15 days after treatment Gramineae [25]: 1; Herbicidal activity 30 days after treatment Gramineae [25]: 1; Herbicidal activity 15 days after treatment Cyperaceae [26]: 1; Herbicidal activity 30 days after treatment Cyperaceae [26]: 1
CS(=O)(=O)c1ccc(C(=O)C2C(=O)CCCC2=O)c([N+](=O)[O-])c1 [Mesotrione, reference compound] |  |  | 1 | 1 | 1 | 1 | 2 (equivalent to 0 to 2.5% of the weed in the blank control area) | 1 | 1 | 2 (equivalent to 0 to 2.5% of the weed in the blank control area) | 1 | 2 (equivalent to 0 to 2.5% of the weed in the blank control area) | 1 | 1 | 1 | 1 | 1 | 1 | 1 |  | 
COc1cnc(OC)n2nc(NS(=O)(=O)c3c(OCC(F)F)cccc3C(F)(F)F)nc12 [Penoxsulam, reference compound] |  |  |  |  |  |  |  |  |  |  |  |  |  |  |  |  |  |  |  |  | Herbicidal activity 15 days after treatment Broadleaf weed [24]: 2 (equivalent to 0 to 2.5% of the weed in the blank control area); Herbicidal activity 30 days after treatment Broadleaf weed [24]: 1; Herbicidal activity 15 days after treatment Gramineae [25]: 2 (equivalent to 0 to 2.5% of the weed in the blank control area); Herbicidal activity 30 days after treatment Gramineae [25]: 1; Herbicidal activity 15 days after treatment Cyperaceae [26]: 2 (equivalent to 0 to 2.5% of the weed in the blank control area); Herbicidal activity 30 days after treatment Cyperaceae [26]: 2 (equivalent to 0 to 2.5% of the weed in the blank control area)
CS(=O)(=O)c1cc(C(F)(F)F)ccc1C(=O)c1cnoc1C1CC1 [Isoxaflutole, reference compound] | 1 | 1 |  |  |  |  |  |  |  |  |  |  |  |  |  |  |  |  |  | 1 | Herbicidal Activity Green bristlegrass [21]: 1; Herbicidal Activity Barnyard grass [22]: 1; Herbicidal Activity Piemarker [23]: 1
